From the NIST ThermoML archive (doi:10.1016/j.jct.2018.12.039)
± gives the expanded uncertainty stated by the source.

Test: xn = mol fraction of the nth substance listed
Conditions: 100 kPa, Liquid; for speed of sound: Frequency=2 MHz, Linear variable-path acoustic interferometer; for mass density: Vibrating tube method

Cc1ccccc1O [2-methylphenol] + CCO
Conditions	mass density, 303.15 K [kg/m3]	mass density, 308.15 K [kg/m3]	mass density, 313.15 K [kg/m3]	mass density, 318.15 K [kg/m3]	speed of sound, 303.15 K [m/s]	speed of sound, 313.15 K [m/s]
x2 = 0	1037.02 ± 1.2	1032.58 ± 1.2	1028.19 ± 1.2	1023.82 ± 1.2	1488.1 ± 2.5	1453 ± 2.5
x2 = 0.1387	1015.95 ± 1.2	1011.54 ± 1.2	1007.18 ± 1.2	1002.83 ± 1.2	1435.4 ± 2.5	1401.2 ± 2.5
x2 = 0.2617	994.82 ± 1.2	990.39 ± 1.2	986.02 ± 1.2	981.62 ± 1.2	1391.2 ± 2.5	1355.4 ± 2.4
x2 = 0.3713	973.68 ± 1.2	969.21 ± 1.2	964.81 ± 1.2	960.38 ± 1.2	1351.2 ± 2.4	1314.6 ± 2.4
x2 = 0.4698	952.47 ± 1.2	947.97 ± 1.2	943.57 ± 1.2	939.1 ± 1.2	1314.2 ± 2.4	1277.9 ± 2.4
x2 = 0.5586	931.22 ± 1.2	926.73 ± 1.2	922.33 ± 1.2	917.85 ± 1.2	1280.2 ± 2.4	1245 ± 2.4
x2 = 0.6392	909.96 ± 1.2	905.45 ± 1.2	901.08 ± 1.2	896.59 ± 1.2	1249.3 ± 2.4	1215.3 ± 2.4
x2 = 0.7127	888.59 ± 1.2	884.08 ± 1.2	879.74 ± 1.2	875.23 ± 1.2	1221.5 ± 2.4	1188.6 ± 2.4
x2 = 0.7799	867.19 ± 1.2	862.71 ± 1.2	858.37 ± 1.2	853.88 ± 1.2	1196.9 ± 2.4	1164.8 ± 2.4
x2 = 0.8417	845.72 ± 1.2	841.26 ± 1.2	836.92 ± 1.2	832.43 ± 1.2	1175.2 ± 2.4	1143.6 ± 2.4
x2 = 0.8986	824.22 ± 1.2	819.77 ± 1.2	815.43 ± 1.2	810.91 ± 1.2	1156.5 ± 2.4	1124.8 ± 2.4
x2 = 0.951	802.69 ± 1.2	798.22 ± 1.2	793.89 ± 1.2	789.33 ± 1.2	1140.6 ± 2.4	1108.4 ± 2.4
